This note sets out measurements from patent publication US20220177477A1 (Central China Normal University, priority 2019, published 2022).

The target of data set [1] is T1, TRKB (Homo sapiens, UniProt Q16620).
T1 construct: purchased Carna Biosciences 08-187
Put plainly: In vitro biochemical HTRF KinEASE kinase inhibition, TRKB. Particulars: wild-type kinase, final ATP 2.56 μmol/L. The procedure:
The material and the method are as follows: wild-type kinases such as TRKA, TRKB and TRKC, and mutant kinases such as TRKA-G595R, TRKA-G667C, TRKA-F589L, TRKC-G623R and TRKC-G696A, and are derived from Carna Biosciences 08-186, 08-187, 08-197; HTRF KinEASE TKkit (Cisbio 62TKO PEC); 384 well plates (Greiner corporation); ATP (Life technologies PV 3227), MgCl2 (sigma); PHERAstar FS Multifunctional microplate reader (BMG Co.); low speed centrifuge (StaiteXiangyi corporation); incubator (Binder company).
Preparing a compound working solution: the dispensed compounds were removed from the freezer prior to testing and diluted to 100× concentration with pure DMSO; then the compound was diluted to the desired concentration of 4× with deionized water;
Preparation of 1.33× enzyme buffer (enzyme buffer): 5× enzyme buffer (from HTRF kit) was diluted to 1.33× with deionized water and the corresponding ingredients were added at a final concentration of 1.33×: 1.33 mmol/L Dithiothreitol (DTT), 1.33 mmol/L MnCl2, 6.65 mmol/L MgCl2 and 39.9 nmol/L SEB;
Preparation of a kinase working solution: TRKA, TRKB and TRKC were diluted with 1.33× enzyme buffer to the required concentrations of 2× of 0.404 ng/μL, 0.304 ng/μL and 0.236 ng/μL, respectively;
Preparing a substrate working solution: a mixture of TK Substrate Blr diluted to the desired final concentration of 4× (from HTRF kit) and ATP (10 mM) with 1.33× enzyme buffer; the final ATP concentrations for TRKA, TRKB, and TRKC were: 3.727 μmol/L, 2.56 μmol/L and 2.526 μmol/L. The TK Substrate-biotin (from HTRF KinEASE TKkit) final concentrations were all: 0.2 μmol/L.
Preparing a detection working solution: 16.67 μmol/L of Streptavidin-XL665 (Streptavidin-XL 665) were diluted to the desired final concentration of 4× with HTRF test buffer and then mixed with an equal volume of Antibody-europium Cryptate (Antibody-Cryptate) (both from HTRF kits).
An enzyme reaction step: add 4 μL of kinase working solution to each well of a low volume 384 microwell plate along with 4 μL of 1.33× enzyme buffer as a Negative control (Negative); add 2 μl of compound working solution to the wells, while adding 2 μl of […] aqueous solution as a zero compound concentration control (i.e., Positive control, Positive); incubating at 25° C. for 5 min; add 2 μL of substrate working solution to the wells to start the enzymatic reaction, shake the reaction for 30 min at 37° C.
HTRF reagent detection step: adding […] to the hole to terminate the reaction; reacting for 1 h at 25° C.;
Reading of HTRF signal: the PHERAstar FS reading is adopted to detect signals, and the corresponding setting of the instrument is as follows:
For the raw data read out per well, the ratio=665 nm/620 nm;
Calculation of inhibition rate:
Calculation of IC50 values: with the logarithm of the compound concentration as abscissa and the inhibition as ordinate, a non-linear curve was fitted in GraphPad Prism 5: log (inhibitor) vs. response—Variable slope, and calculating the concentration of the compound to be detected, namely IC50, when the enzyme activity inhibition rate is 50%.
On the technique in general: Time-resolved FRET reads energy transfer from a long-lived donor to a nearby acceptor.

Data set [2] is described as follows: Drug metabolism study in rats, oral administration. Particulars: rat.
The nature of data set [3]: Drug metabolism study in rats, intravenous administration. Particulars: rat, plasma, iv, 1 mg/kg.
The target of data set [4] is T2, TRKA (Homo sapiens, UniProt P04629).
T2 construct: purchased Carna Biosciences 08-186
Put plainly: In vitro biochemical HTRF KinEASE kinase inhibition, TRKA. Particulars: wild-type kinase, final ATP 3.727 μmol/L; read-out: TRKA IC50.

The target in data set [5] is T3, TRKC (Homo sapiens, UniProt Q16288).
T3 construct: purchased Carna Biosciences 08-197
In words: In vitro biochemical HTRF KinEASE kinase inhibition, TRKC. The conditions noted are these: wild-type kinase, final ATP 2.526 μmol/L.

In general, IC50 refers to the point on the concentration scale where inhibition reaches its midpoint. The term AUC(0-t) denotes exposure summed from dosing to a finite time, without extrapolation to infinity. As a reminder, the Cmax is the peak of the concentration-time curve. What is called MRT last is the average time that molecules of a dose stay in the body. The term Tmax denotes the time at which the peak concentration occurs. A word on the bioavailability: it is the share of a dose that reaches the circulation, judged against a reference dose that is usually intravenous. What is called half-life is the time in which the quantity being followed falls by half. A high value points to slow loss. Broadly, the Vd is a proportionality between amount in the body and measured concentration, not a real space. Read a high Vd as wide distribution into tissue. For orientation: clearance means a measure of how efficiently the substance is removed, as volume per time.

T1 sequence (Q16620 32-822): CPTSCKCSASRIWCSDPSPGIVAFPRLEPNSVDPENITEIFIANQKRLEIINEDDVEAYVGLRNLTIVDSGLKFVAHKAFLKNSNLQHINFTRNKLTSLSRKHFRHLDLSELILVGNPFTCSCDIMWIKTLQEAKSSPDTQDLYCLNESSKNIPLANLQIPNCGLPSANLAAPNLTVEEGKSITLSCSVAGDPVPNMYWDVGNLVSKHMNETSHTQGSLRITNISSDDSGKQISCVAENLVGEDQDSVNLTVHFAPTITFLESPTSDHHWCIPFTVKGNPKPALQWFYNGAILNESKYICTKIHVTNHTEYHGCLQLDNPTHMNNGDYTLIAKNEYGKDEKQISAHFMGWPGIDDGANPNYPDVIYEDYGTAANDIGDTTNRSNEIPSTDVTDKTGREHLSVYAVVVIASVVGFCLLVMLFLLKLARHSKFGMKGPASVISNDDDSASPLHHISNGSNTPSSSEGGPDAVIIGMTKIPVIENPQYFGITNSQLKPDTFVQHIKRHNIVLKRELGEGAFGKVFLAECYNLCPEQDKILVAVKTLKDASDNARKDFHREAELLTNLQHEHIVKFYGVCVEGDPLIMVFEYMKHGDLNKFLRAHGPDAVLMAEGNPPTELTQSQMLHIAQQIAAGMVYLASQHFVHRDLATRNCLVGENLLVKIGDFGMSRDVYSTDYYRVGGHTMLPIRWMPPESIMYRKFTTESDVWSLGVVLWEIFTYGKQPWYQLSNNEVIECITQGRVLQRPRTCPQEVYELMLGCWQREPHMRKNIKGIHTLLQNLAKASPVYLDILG
T3 sequence (Q16288 32-825 isoform Q16288-3 limits assumed): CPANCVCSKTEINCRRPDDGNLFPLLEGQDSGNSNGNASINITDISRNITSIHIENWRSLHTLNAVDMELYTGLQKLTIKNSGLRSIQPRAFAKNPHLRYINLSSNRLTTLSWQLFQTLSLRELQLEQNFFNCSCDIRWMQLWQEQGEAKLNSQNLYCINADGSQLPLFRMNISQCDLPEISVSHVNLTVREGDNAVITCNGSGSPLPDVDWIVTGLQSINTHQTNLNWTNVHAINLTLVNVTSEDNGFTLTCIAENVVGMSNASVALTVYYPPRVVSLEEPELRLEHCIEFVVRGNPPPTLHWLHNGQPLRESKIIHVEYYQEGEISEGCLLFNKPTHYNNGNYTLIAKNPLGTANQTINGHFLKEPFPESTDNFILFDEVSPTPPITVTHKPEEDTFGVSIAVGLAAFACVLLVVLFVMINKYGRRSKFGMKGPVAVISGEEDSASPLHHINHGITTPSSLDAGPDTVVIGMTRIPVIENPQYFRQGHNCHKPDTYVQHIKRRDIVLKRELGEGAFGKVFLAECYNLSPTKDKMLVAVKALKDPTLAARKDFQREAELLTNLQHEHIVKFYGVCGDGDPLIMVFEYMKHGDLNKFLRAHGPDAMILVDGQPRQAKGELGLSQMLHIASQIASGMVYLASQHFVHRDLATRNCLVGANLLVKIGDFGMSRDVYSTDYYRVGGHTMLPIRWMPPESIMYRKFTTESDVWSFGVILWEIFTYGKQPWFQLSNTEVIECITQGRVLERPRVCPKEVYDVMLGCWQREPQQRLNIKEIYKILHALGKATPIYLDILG
T2 sequence (P04629 33-796): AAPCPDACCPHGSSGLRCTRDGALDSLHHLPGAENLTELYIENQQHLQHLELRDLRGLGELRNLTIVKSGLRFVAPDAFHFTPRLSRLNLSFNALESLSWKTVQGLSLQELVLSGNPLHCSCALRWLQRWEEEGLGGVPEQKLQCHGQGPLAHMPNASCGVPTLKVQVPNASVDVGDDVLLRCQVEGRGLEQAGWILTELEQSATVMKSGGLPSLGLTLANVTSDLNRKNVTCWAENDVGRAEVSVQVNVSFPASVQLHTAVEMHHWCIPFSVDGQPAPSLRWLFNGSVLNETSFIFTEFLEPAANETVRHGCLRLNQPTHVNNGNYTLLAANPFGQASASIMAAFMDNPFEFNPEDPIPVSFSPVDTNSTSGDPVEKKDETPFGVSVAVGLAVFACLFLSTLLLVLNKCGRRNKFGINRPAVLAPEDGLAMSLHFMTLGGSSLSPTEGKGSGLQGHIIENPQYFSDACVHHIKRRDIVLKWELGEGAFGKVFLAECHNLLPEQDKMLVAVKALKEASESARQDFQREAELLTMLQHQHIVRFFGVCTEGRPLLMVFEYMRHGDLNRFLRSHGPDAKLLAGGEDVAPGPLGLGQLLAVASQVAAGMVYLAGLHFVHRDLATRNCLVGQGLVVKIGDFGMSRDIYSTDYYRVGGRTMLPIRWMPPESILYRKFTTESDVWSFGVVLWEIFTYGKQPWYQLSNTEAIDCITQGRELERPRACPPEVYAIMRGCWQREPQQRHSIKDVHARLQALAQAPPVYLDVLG

In the case of `C[C@@H](Nc1ccn2ncc(-c3cnn(C)c3)c2n1)c1cc(F)ccc1OCC(F)F` [Compound 2, (R)-N-(1-(2-(2,2-difluoroethoxy)-5-fluorophenyl)ethyl)-3-(1-methyl-1H-pyrazol-4-yl) pyrazolo [1,5-a] pyrimidin-5-amine], inhibition in data set [1] was half-maximal at 2.8 nM (IC50). In data set [2] (oral 5 mg/kg), this compound had a CL of 168.7 mL/min/kg and a Vz of 37.61 L/kg. Further, in data set [2] (plasma, po, 5 mg/kg), the AUC(0-t) was found to be 533 ng·h/mL, the highest level (Cmax) was 150 ng/mL, the MRT last came to 2.62 h and the Tmax stood at 0.67 h. In data set [2] (plasma, po, 5 mg/kg), the bioavailability worked out at 30.2% and the half-life was 2.85 h. In data set [3], this compound displayed an area under the curve AUC(0-t) of 353 ng·h/mL, a Cmax of 298 ng/mL, a mean residence time (MRT last) of 1.49 h and a Vd of 6.8 L/kg. For the same compound, in data set [3], the clearance was 46 mL/min/kg and the half-life was 1.71 h.
For `CC(Nc1ccn2ncc(-c3cnn(C(F)F)c3)c2n1)c1cc(F)ccc1OCC(F)F` (stereo not shown) [Compound 3, N-(1-(2-(2,2-difluoroethoxy)-5-fluorophenyl)ethyl)-3-(1-(difluoromethyl)-1H-pyrazol-4-yl) pyrazolo [1,5-a] pyrimidin-5-amine], the half-maximal inhibitory concentration (IC50) in data set [4] worked out at 5.8 nM; in data set [1], 4.8 nM; in data set [5], 7.1 nM.
With `CC(Nc1ccn2ncc(-c3cnn(C4CC4)c3)c2n1)c1cc(F)ccc1OCC(F)F` (stereo not shown) [Compound 4, 3-(1-cyclopropyl-1H-pyrazol-4-yl)-N-(1-(2-(2,2-difluoroethoxy)-5-fluorophenyl)ethyl) pyrazolo [1,5-a] pyrimidin-5-amine], the 50% inhibitory concentration (IC50) in data set [4] worked out at 12.2 nM; in data set [1], 15.9 nM; in data set [5], 24.9 nM.
In the same order, the values of `C[C@@H](Nc1ccn2ncc(-c3cnn(CC#N)c3)c2n1)c1cc(F)ccc1OCC(F)F` [Compound 7] are 2.4 nM, 1.3 nM and 2.4 nM.
For `CC(Nc1ccn2ncc(-c3cnn(C4CCCC4O)c3)c2n1)c1cc(F)ccc1OCC(F)F` (stereo not shown) [Compound 8, 2-(4-(5-((1-(2-(2,2-difluoroethoxy)-5-fluorophenyl)ethyl)amino)pyrazolo [1,5-a]pyrimidin-3-yl)-1H-pyrazol-1-yl) cyclopentan-1-ol], the IC50 in data set [4] is 5.4 nM; in data set [1], 5.7 nM; in data set [5], 9.8 nM.
In the case of `C[C@@H](Nc1ccn2ncc(-c3cnn(C4CCCCO4)c3)c2n1)c1cc(F)ccc1OCC(F)F` (stereo partly drawn) [Compound 10, N-((R)-1-(2-(2,2-difluoroethoxy)-5-fluorophenyl)ethyl)-3-(1-(tetrahydro-2H-pyran-2-yl)-1H-pyrazol-4-yl) pyrazolo [1,5-a] pyrimidin-5-amine], the half-maximal inhibitory concentration (IC50) in data set [4] is 3.8 nM; in data set [1], 2.7 nM; in data set [5], 5.5 nM.
In the same order, the values of `CC(=O)n1cc(-c2cnn3ccc(N[C@H](C)c4cc(F)ccc4OCC(F)F)nc23)cn1` [Compound 12, (R)-1-(4-(5-((1-(2-(2,2-difluoroethoxy)-5-fluorophenyl)ethyl)amino)pyrazolo [1,5-a]pyrimidin-3-yl)-1H-pyrazol-1-yl) ethanone] are 3.3 nM, 3.5 nM and 4.7 nM.
Regarding `CC(Nc1ccn2ncc(-c3cn[nH]c3)c2n1)c1cc(F)cc(F)c1OCC(F)F` (stereo not shown) [Compound 14, N-(1-(2-(2,2-difluoroethoxy)-3,5-difluorophenyl)ethyl)-3-(1H-pyrazol-4-yl) pyrazolo [1,5-a] pyrimidin-5-amine], the half-maximal inhibitory concentration (IC50) was determined as 11.3 nM in data set [4], 4.2 nM in data set [1] and 6.7 nM in data set [5].
`CC(Nc1ccn2ncc(-c3cn[nH]c3)c2n1)c1cc(F)ccc1OCCN1CCOCC1` (stereo not shown) [Compound b16-44, N-(1-(5-fluoro-2-(2-morpholinoethoxy)phenyl)ethyl)-3-(1H-pyrazol-4-yl) pyrazolo [1,5-a] pyrimidin-5-amine]: the half-maximal inhibitory concentration (IC50) in data set [4] worked out at 364 nM.
